Experimental data published in patent publication US20180320217A1, “METHODS FOR SAMPLING AND MEASURING ORAL LAVAGE PROTEINS” (The Procter & Gamble Company, priority 2017, published 2018).
“And” between values parts separate entries of the source, which are not always exact repeats. Identical values can stand only once. “Also recorded” adds a separate entry of the source.

Legend:
[1] = test system: Malate dehydrogenase and diaphorase; assay: Formation of formazan dyes: Malate dehydrogenase, diaphorase and malate (TABLE 10); format: biochemical, pig heart
[2] = Formation of formazan dyes: NADH and 1-methoxy PMS, absence of malate (TABLE 15); format: biochemical
oral lavage [3] = assay: Formation of formazan dyes: oral lavage and diaphorase, not malate (TABLE 11); format: biochemical, human
oral lavage [4] = assay: Formation of formazan dyes: oral lavage, malate and diaphorase (TABLE 12); format: biochemical, human; conditions: oral lavage, malate and diaphorase
[5] = Formation of formazan dyes: control buffer, malate and 1-Methoxy PMS (TABLE 22); format: biochemical
Malate dehydrogenase = molecular target: T1, Malate dehydrogenase (Sus scrofa, UniProt P00346); assay: Formation of formazan dyes: Malate dehydrogenase and 1-Methoxy PMS, absence of malate (TABLE 17); format: biochemical, pig heart; parameters: L-malate dehydrogenase (pig heart); purchased Sigma-Aldrich 10127248001 / 10127914001
T1 sequence (P00346 25-338): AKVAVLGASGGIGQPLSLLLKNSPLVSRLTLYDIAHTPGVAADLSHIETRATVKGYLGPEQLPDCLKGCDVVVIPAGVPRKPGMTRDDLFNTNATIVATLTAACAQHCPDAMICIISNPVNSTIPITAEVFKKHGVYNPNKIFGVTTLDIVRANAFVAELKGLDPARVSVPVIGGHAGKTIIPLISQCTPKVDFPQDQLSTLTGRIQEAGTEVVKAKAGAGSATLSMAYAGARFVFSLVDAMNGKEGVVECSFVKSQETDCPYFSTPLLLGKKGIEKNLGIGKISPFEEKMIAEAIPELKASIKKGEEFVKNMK

diaphorase [6] = assay: Formation of formazan dyes: NADH, diaphorase and malate (TABLE 8); format: biochemical, Clostridium kluyveri; conditions: NADH, diaphorase and malate
[7] = Formation of formazan dyes: control buffer and 1-Methoxy PMS, absence of malate (TABLE 21); format: biochemical
[8] = test system: Malate dehydrogenase and diaphorase; assay: Formation of formazan dyes: Malate dehydrogenase and diaphorase, absence of malate (TABLE 9); format: biochemical, pig heart
oral lavage [9] = assay: Formation of formazan dyes: oral lavage and 1-Methoxy PMS, absence of malate (TABLE 19); format: biochemical, human
[10] = Formation of formazan dyes: NADH, malate and 1-methoxy PMS (TABLE 16); format: biochemical
diaphorase [11] = assay: Formation of formazan dyes: only diaphorase and malate (TABLE 14); format: biochemical, Clostridium kluyveri; conditions: mean of three experiments
diaphorase [12] = assay: Formation of formazan dyes: NADH and diaphorase, absence of malate (TABLE 7); format: biochemical, Clostridium kluyveri; conditions: NADH and diaphorase, absence of malate
diaphorase [13] = assay: Formation of formazan dyes: only diaphorase, not malate (TABLE 13); format: biochemical, Clostridium kluyveri; conditions: mean of three experiments

2-Benzothiazoryl-3-(4-carboxy-2-methoxyphenyl)-5-[4-(2-sulfoethylcarbamoyl)phenyl]-2H-tetrazolium [WST-4]
Formation of formazan dyes, absorbance, Means 0 h ([1]; Malate dehydrogenase, diaphorase and malate, 0 h): 0.51
Formation of formazan dyes, absorbance, Means 1 h ([1]; Malate dehydrogenase, diaphorase and malate, 1 h): 0.81
Formation of formazan dyes, absorbance, Means 2 h ([1]; Malate dehydrogenase, diaphorase and malate, 2 h): 0.99
Formation of formazan dyes, absorbance, Means 3 h ([1]; Malate dehydrogenase, diaphorase and malate, 3 h): 1.13
Formation of formazan dyes, absorbance, Means 4 h ([1]; Malate dehydrogenase, diaphorase and malate, 4 h): 1.25
Formation of formazan dyes, absorbance, Means 6 h ([1]; Malate dehydrogenase, diaphorase and malate, 6 h): 1.43
Formation of formazan dyes, absorbance, Means 8 h ([1]; Malate dehydrogenase, diaphorase and malate, 8 h): 1.57
Formation of formazan dyes, absorbance, Means 10 h ([1]; Malate dehydrogenase, diaphorase and malate, 10 h): 1.68
Formation of formazan dyes, absorbance, Means 12 h ([1]; Malate dehydrogenase, diaphorase and malate, 12 h): 1.75
conversion to reduced formazan dyes ([1]; malate dehydrogenase, diaphorase and malate (TABLE 10)): converted to reduced formazan dyes in a time-dependent fashion; also recorded: able to catalyze the reduction
Absorbance, formation of formazan dyes (Means) [2]: 1.52 and 1.57 and 1.64
Formation of formazan dyes, absorbance, Means 0 h (oral lavage [3]; oral lavage and diaphorase, not malate, 0 h): 0.55
Formation of formazan dyes, absorbance, Means 1 h (oral lavage [3]; oral lavage and diaphorase, not malate, 1 h): 0.74
Formation of formazan dyes, absorbance, Means 2 h (oral lavage [3]; oral lavage and diaphorase, not malate, 2 h): 0.76
Formation of formazan dyes, absorbance, Means 3 h (oral lavage [3]; oral lavage and diaphorase, not malate, 3 h): 0.80
Formation of formazan dyes, absorbance, Means 4 h (oral lavage [3]; oral lavage and diaphorase, not malate, 4 h): 0.78
Formation of formazan dyes, absorbance, Means 6 h (oral lavage [3]; oral lavage and diaphorase, not malate, 6 h): 0.88
Formation of formazan dyes, absorbance, Means 8 h (oral lavage [3]; oral lavage and diaphorase, not malate, 8 h): 0.90
Formation of formazan dyes, absorbance, Means 10 h (oral lavage [3]; oral lavage and diaphorase, not malate, 10 h): 0.87
Formation of formazan dyes, absorbance, Means 12 h (oral lavage [3]; oral lavage and diaphorase, not malate, 12 h): 0.93
reduction to formazan dyes by pooled oral lavage (oral lavage [3]; pooled oral lavage of high bleeder group, diaphorase, no added malate (TABLE 11)): partially reduced to formazan dyes
Formation of formazan dyes, absorbance, Means 0 h (oral lavage [4]; 0 h): 0.44
Formation of formazan dyes, absorbance, Means 1 h (oral lavage [4]; 1 h): 0.56
Formation of formazan dyes, absorbance, Means 2 h (oral lavage [4]; 2 h): 0.63
Formation of formazan dyes, absorbance, Means 3 h (oral lavage [4]; 3 h): 0.67
Formation of formazan dyes, absorbance, Means 4 h (oral lavage [4]; 4 h): 0.77
Formation of formazan dyes, absorbance, Means 6 h (oral lavage [4]; 6 h): 0.83
Formation of formazan dyes, absorbance, Means 8 h (oral lavage [4]; 8 h): 0.89
Formation of formazan dyes, absorbance, Means 10 h (oral lavage [4]; 10 h): 0.96
Formation of formazan dyes, absorbance, Means 12 h (oral lavage [4]; 12 h): 0.95
Means absorbance 0 h [5]: 0.13
Means absorbance 1 h [5]: 0.13
Means absorbance 2 h [5]: 0.13
Means absorbance 3 h [5]: 0.15
Absorbance, formation of formazan dyes (Means) (Malate dehydrogenase): 0.27 and 0.29 and 0.31 and 0.38
reduction by malate dehydrogenase alone (Malate dehydrogenase): did not catalyze the reduction
Formation of formazan dyes, absorbance, Means 0 h (diaphorase [6]; 0 h): 1.92
Formation of formazan dyes, absorbance, Means 1 h (diaphorase [6]; 1 h): 1.91
Formation of formazan dyes, absorbance, Means 2 h (diaphorase [6]; 2 h): 1.91
Formation of formazan dyes, absorbance, Means 3 h (diaphorase [6]; 3 h): 1.89
Formation of formazan dyes, absorbance, Means 4 h (diaphorase [6]; 4 h): 1.97
Formation of formazan dyes, absorbance, Means 6 h (diaphorase [6]; 6 h): 1.94
Formation of formazan dyes, absorbance, Means 8 h (diaphorase [6]; 8 h): 1.92
Formation of formazan dyes, absorbance, Means 10 h (diaphorase [6]; 10 h): 1.88
Formation of formazan dyes, absorbance, Means 12 h (diaphorase [6]; 12 h): 1.83
Absorbance, formation of formazan dyes (Means) [7]: 0.30 and 0.34 and 0.43 and 0.44
Formation of formazan dyes, absorbance, Means 0 h ([8]; Malate dehydrogenase and diaphorase, absence of malate, 0 h): 0.51
Formation of formazan dyes, absorbance, Means 1 h ([8]; Malate dehydrogenase and diaphorase, absence of malate, 1 h): 0.83
Formation of formazan dyes, absorbance, Means 2 h ([8]; Malate dehydrogenase and diaphorase, absence of malate, 2 h): 0.99
Formation of formazan dyes, absorbance, Means 3 h ([8]; Malate dehydrogenase and diaphorase, absence of malate, 3 h): 1.06
Formation of formazan dyes, absorbance, Means 4 h ([8]; Malate dehydrogenase and diaphorase, absence of malate, 4 h): 1.17
Formation of formazan dyes, absorbance, Means 6 h ([8]; Malate dehydrogenase and diaphorase, absence of malate, 6 h): 1.24
Formation of formazan dyes, absorbance, Means 8 h ([8]; Malate dehydrogenase and diaphorase, absence of malate, 8 h): 1.35
Formation of formazan dyes, absorbance, Means 10 h ([8]; Malate dehydrogenase and diaphorase, absence of malate, 10 h): 1.44
Formation of formazan dyes, absorbance, Means 12 h ([8]; Malate dehydrogenase and diaphorase, absence of malate, 12 h): 1.47
reduction of tetrazolium dye in the absence of substrate malate ([8]; malate dehydrogenase and diaphorase (TABLE 9)): partially reduced
Absorbance, formation of formazan dyes (Means) (oral lavage [9]): 0.78 and 1.07 and 1.15 and 1.22
Absorbance, formation of formazan dyes (Means) [10]: 1.32 and 1.31 and 1.29 and 1.30
Absorbance, formation of formazan dyes (Means) (diaphorase [11]; 0 h): 0.08
Absorbance, formation of formazan dyes (Means) (diaphorase [11]; 1 h): 0.10
Absorbance, formation of formazan dyes (Means) (diaphorase [11]; 2 h): 0.12
Absorbance, formation of formazan dyes (Means) (diaphorase [11]; 3 h): 0.14
Absorbance, formation of formazan dyes (Means) (diaphorase [11]; 4 h): 0.16
Absorbance, formation of formazan dyes (Means) (diaphorase [11]; 6 h): 0.19
Absorbance, formation of formazan dyes (Means) (diaphorase [11]; 8 h): 0.23
Absorbance, formation of formazan dyes (Means) (diaphorase [11]; 10 h): 0.26
Absorbance, formation of formazan dyes (Means) (diaphorase [11]; 12 h): 0.27
Formation of formazan dyes, absorbance, Means 0 h (diaphorase [12]; 0 h): 1.96
Formation of formazan dyes, absorbance, Means 1 h (diaphorase [12]; 1 h): 2.01
Formation of formazan dyes, absorbance, Means 2 h (diaphorase [12]; 2 h): 2.04
Formation of formazan dyes, absorbance, Means 3 h (diaphorase [12]; 3 h): 2.08
Formation of formazan dyes, absorbance, Means 4 h (diaphorase [12]; 4 h): 2.20
Formation of formazan dyes, absorbance, Means 6 h (diaphorase [12]; 6 h): 2.25
Formation of formazan dyes, absorbance, Means 8 h (diaphorase [12]; 8 h): 2.29
Formation of formazan dyes, absorbance, Means 10 h (diaphorase [12]; 10 h): 2.30
Formation of formazan dyes, absorbance, Means 12 h (diaphorase [12]; 12 h): 2.32
Absorbance, formation of formazan dyes (Means) (diaphorase [13]; 0 h): 0.22
Absorbance, formation of formazan dyes (Means) (diaphorase [13]; 1 h): 0.35
Absorbance, formation of formazan dyes (Means) (diaphorase [13]; 2 h): 0.40
Absorbance, formation of formazan dyes (Means) (diaphorase [13]; 3 h): 0.40
Absorbance, formation of formazan dyes (Means) (diaphorase [13]; 4 h): 0.38
Absorbance, formation of formazan dyes (Means) (diaphorase [13]; 6 h): 0.30
Absorbance, formation of formazan dyes (Means) (diaphorase [13]; 8 h): 0.32
Absorbance, formation of formazan dyes (Means) (diaphorase [13]; 10 h): 0.36
Absorbance, formation of formazan dyes (Means) (diaphorase [13]; 12 h): 0.39
